Measured values published in US20030204875A1, “Novel agrobacterium-mediated plant transformation method” (priority 1999, published 2003).
Read-outs that look alike come from different tables or passages of the source.

Legend:
[1] = system: Agrobacterium (strain ABI); format: cell-based; set-up: key: “No Growth” indicates there was not an increase in cell density indicating bacteriocidal or bacteriostatic property of the chemical; “Slow Growth” indicates that a slight increase in cell density was noticed and a higher level may be lethal; “Growth” indicates no effect on bacterial growth at the concentration used relative to growth in control medium; settings: control, AgNO3 20 μM; twenty-four hours
Description: Each of the chemicals listed in Table 26 was resuspended in MS-BMS media and added (final concentration 50 μM) to a 50 ml overnight culture of Agrobacterium (strain ABI). Twenty-four hours after inoculation the effect of the chemicals on the growth of Agrobacterium was recorded. A known bacteriocidal compound, Carbenicillin at a final concentration of 50 mg/L and AgNO3 (20 μM) were used as controls.

[2] = system: T-DNA transfer to immature embryos of genotype H99×A188; settings: for Average number of GUS foci/explant: three days
Description: (§1) Immature embryos of genotype H99×A188 were isolated as described above. The disarmed Agrobacterium strain ABI harboring binary vector pMON18365 (FIG. 2) was used. The Agrobacterium strain was pre-induced as described above and three mls of pre-induced Agrobacterium suspension (A660 OD 4.0) was added to a 6-well tissue culture plate as described earlier. The inoculation was performed for three hours under vacuum. The Agrobacterium suspension was removed and embryos were placed on respective semi-solid medium containing various concentrations of AgNO3 (0, 10, 20, 40, 60 ? M AgNO3 final concentration). All the tissues were incubated for three days in the dark. The efficiency of T-DNA delivery was estimated by a transient GUS analysis performed three days after co-culture by counting the number of GUS foci per immature embryo explant (Table 21). Efficiency of culture response was determined by transferring the embryos to a delay medium (D medium, supplemented with 500 mg/L Carbenicillin) and taking observation 2 weeks post transfer.

[3] = system: immature embryos of genotype H99×A188; settings: observed 2 weeks post transfer to delay medium
Description: as §1

[4] = system: Agrobacterium tumefaciens strain EHA 101
Description: Three mls of pre-induced Agrobacterium suspension (A660 OD 4.0) was added to a 6-well tissue culture plate as described. After adding the explants to the Agrobacterium suspension cells, the inoculation was performed for 15 minutes. The Agrobacterium suspension was removed and the embryos were placed on semi-solid medium with or without AgNO3 (20 ? M final concentration). All the tissues were incubated for three days in the dark. The amount of Agrobacterium present was estimated at the beginning by randomly sampling immature embryos immediately after inoculation and again at the end of the co-culture period to determine the number of attached Agrobacterium cells per immature embryo explant.

[5] = system: immature embryos of genotype (H99×Pa 91)A188
Description: Immature embryos of genotype (H99×Pa 91)A188 were isolated as described. […] The Agrobacterium strain was pre-induced as described and three mls of pre-induced Agrobacterium suspension (A660 OD 0.5) supplemented with 20 ? M AgNO3 was added to a 6-well tissue culture plate as described above. Inoculation was performed for 15 minutes. The Agrobacterium suspension was removed and embryos were placed on semi-solid co-culture medium containing 20 ? M AgNO3 (final concentration). All the tissues were incubated for three days in the dark. […] Control embryos were cultured in the absence of AgNO3 in all steps of the transformation process. Transformation efficiency was calculated based on the number of embryos producing paromomycin resistant calli.

[6] = system: Agrobacterium cells; settings: for Results (growth of Agrobacterium cells): 15 hours; for OD A660 after 15 hours growth: starting OD 0.2
Description: Agrobacterium cultures used for transformation are pre-induced (except as otherwise indicated) by acetosyringone (200 μM) and glucose (2%) in AB based induction medium. The procedure followed was as follows:
Agrobacterium cells were centrifuged at 4° C. for 10 min at 3250 g and the pellet was resuspended in the pre-induction medium to a final optical density of 0.2 at A660 and incubated at 28° C. for 12-15 h.
During pre-induction, AgNO3 was added at two different levels (20 ? M and 40 ? M final concentration) to the pre-induction medium. The final optical density prior to the induction was adjusted to A660 (OD 0.2). Agrobacterium cells were pre-induced for 15 hours. Measurement of the optical density (measure of growth) was taken at the end of pre-induction, just prior to transformation. Agrobacterium cells pre-induced in the absence of AgNO3 were used as a control.

[7] = system: wheat immature embryos; settings: OD660 4.0 plus 20 mM AgNO3, co-culture three days
Description: (§2) The following transformation protocols included the following parameters: use of immature embryos that were pre-cultured for less than 24 h; a bacterial inoculation density >2.0 at OD660, a co-culture duration of from one to three days, the use of a higher concentration of auxin or different type of auxin/combination of growth regulators than that required during normal tissue culture, a delay period 3-7d following co-culture (with out selection pressure), no sub-culture of the original explant, a step-wise increase or decrease, depending on the crop and selection scheme and a transformation duration between 9-12 weeks.

[8] = system: corn immature embryos
Description: as §2

[9] = system: rice immature embryos; settings: OD660 2.0 plus 20 mM AgNO3, co-culture one day
Description: as §2

[10] = 10 μM AgNO3 in co-culture medium
[11] = 20 μM AgNO3 in co-culture medium
[12] = 40 μM AgNO3 in co-culture medium
[13] = 60 μM AgNO3 in co-culture medium
[14] = 20 μM AgNO3 in pre-induction medium
[15] = 40 μM AgNO3 in pre-induction medium

O=[N+]([O-])[O-].[Ag+] [AgNO3, silver nitrate]
Effect (on growth of Agrobacterium) [1]: No Growth
Effect on frequency of T-DNA transfer and tissue survival ([2]; 10 μM AgNO3 during co-culture): positive effect
Average number of GUS foci/explant [2, 10]: 63
Average number of GUS foci/explant [2, 11]: 26
Average number of GUS foci/explant [2, 12]: 28
Effect on T-DNA transfer ([2]; 60 μM AgNO3 during co-culture): inhibitory
Average number of GUS foci/explant [2, 13]: 12
% of immature embryos responding to culture [3, 10]: 42%
% of immature embryos responding to culture [3, 11]: 64%
% of immature embryos responding to culture [3, 12]: 62%
% of immature embryos responding to culture [3, 13]: 60%
Effect on growth of Agrobacterium during co-culture ([4]; 20 μM AgNO3, three days co-culture): significantly inhibited
Results (fold reduction of Agrobacterium colonies/explant) ([4]; 3d co-culture plus 20 μM AgNO3, versus 0d): 30 fold reduction
Average # of Agrobacterium Colonies/Explant ([4]; 3d co-culture plus 20 μM AgNO3, 0d value 3 × 10^5 CFU): 1.0 × 10^4 CFU
% Transformation ([5]; 5d 20 μM AgNO3: present during inoculation and 5 day delay, not during 3 day co-culture): 7.8 (4/51) %
% Transformation ([5]; 8d 20 μM AgNO3: present during inoculation, 3 day co-culture and 5 day delay): 9.0 (5/55) %
Results (growth of Agrobacterium cells) [6, 14]: no growth
OD A660 after 15 hours growth [6, 14]: 0.23
Results (growth of Agrobacterium cells) [6, 15]: no growth
OD A660 after 15 hours growth [6, 15]: 0.24
Effect on Agrobacterium cells, plating on semi-solid LB plates ([6]; 15 hour culture period in the presence of AgNO3 (20 or 40 μM)): lethal
Transformation (%) [7]: 4%
Transformation (%) ([8]; OD660 2.0 plus 20 μM AgNO3, co-culture three days): 18%
Transformation (%) ([8]; OD660 4.0 plus 20 μM AgNO3, co-culture three days): 8%
Transformation (%) [9]: 23%
